Assays:
[1] = test system: CyPPO13 (Synechococcus sp. JA-3-3Ab PPO, SEQ ID NO: 4) variant F373T, MBP fusion; assay: PPO inhibition assay; format: biochemical; details: herbicide 0-5,000 nM, 50 μM substrate
Experimental: (§1) The enzyme activities of PPO protein and PPO protein variants were examined, and inhibition assay by PPO-inhibiting herbicides was conducted. It was confirmed that the PPO protein has low water-solubility, but in case of being expressed as a fusion protein with MBP (maltose binding protein) (MBP-PPO), the PPO protein is able to be stably expressed as water-soluble form. Therefore, the wild type and variant proteins which were expressed in the form of fusion protein with MBP were used in the present test (refer to FIG. 4).
(§2) At first, a substrate of PPO protein, Protoporphyrinogen IX was synthesized. This process was performed in the space where nitrogen gas is streamed. 6 mg of protoporphyrin IX was dissolved in 20% (v/v) EtOH 20 ml, and stirred under dark condition for 30 minutes. The obtained protoporphyrinogen IX solution was put into a 15 ml screw tube in an amount of 800 and flushed with nitrogen gas for 5 minutes. To this, 1 g of sodium amalgam was added and vigorous shaking was performed for 2 minutes. The lid was open to exhaust hydrogen gas in the tube. Thereafter, the lid was closed and incubated for 3 minutes. The […] was filtered using syringe and cellulose membrane filter. To 600 μl of the obtained […], 2M MOPS [3-(N-morpholino)propanesulfonic acid] was added in an amount of approximately 300 thereby adjusting pH to 8.0. To determine the enzyme activity of PPO protein, a reaction mixture was prepared with the following composition (based on 10 ml): 50 mM Tris-Cl (pH 8.0); 50 mM NaCl; 0.04% (v/v) Tween 20; 40 mM glucose (0.072 g); 5 units glucose oxidase (16.6 mg); and 10 units catalase (1 μl).
(§3) Two hundred microliters (200 μl) of reaction mixture containing a purified PPO protein were placed in 96 well plates, and preincubated for 30 min at room temperature to reduce the oxygen concentration by the reaction of glucose oxidase-catalase. The mineral oil was layered and then the reaction was initiated by adding the substrate, […], to a final concentration of 50 μM. The reaction proceeded at room temperature for 30 min and the fluorescence of protoporphyrin IX was measured using Microplate reader (Sense, Hidex) (excitation: 405 nm; emission: 633 nm). To calculate the PPO enzyme activity, protoporphyrinogen IX solution was kept open in the air to oxidize the solution (overnight). To this, 2.7N HCl was added, and the absorbance at 408 nm was measured. A standard curve was generated using standard protoporphyrin IX, and the PPO activity was measured by calibration of protoporphyrin IX using the standard curve of protoporphyrin IX.
(§4) The final concentration of each herbicide was as follows: […]

[2] = test system: CyPPO13 (Synechococcus sp. JA-3-3Ab PPO, SEQ ID NO: 4) variant F373N, MBP fusion; assay: PPO inhibition assay; format: biochemical; details: herbicide 0-5,000 nM, 50 μM substrate
Experimental: as §1, §2, §3, §4

[3] = test system: A. thaliana T3 lines with CyPPO10 wild type or mutants (F360M, F360I, F360L, F360C, A167C), CyPPO13 wild type or mutants (F373M, F373C, F373I, A177C …); assay: Seed germination of A. thaliana transformants on herbicide media; format: in vivo, Arabidopsis thaliana; details: 7 days
[4] = test system: PPO-deficient BT3 E. coli (ΔPPO) with A. thaliana PPO1 mutant AtPPO1 SLYM (Y426M, S305L, SEQ ID NO: 7); assay: Growth of transformed BT3 (ΔPPO) on tiafenacil media; format: cell-based
Experimental: (§5) After transforming PPO-deficient BT3 E. coli (ΔPPO) with CyPPO10 or CyPPO13, the transformed BT3 (ΔPPO) was cultured on LB agar plates containing PPO-inhibiting herbicide to examine the growth level of the transformed BT3 (ΔPPO). BT3 (ΔPPO) strain was obtained from Hokkaido University (Japan). The BT3 (ΔPPO) strain is deficient in hemG-type PPO and has kanamycin tolerance (refer to “Watanabe et al., Dual targeting of spinach protoporphyrinogen oxidase II to mitochondria and chloroplasts by alternative use of two in-frame […], JBC 2001 276(23):20474-20481; Che et al., Molecular Characterization and Subcellular Localization of Protoporphyrinogen Oxidase in Spinach Chloroplasts, Plant Physiol. 2000 September; 124(1):59-70”).
(§6) For seed culture of E. coli transformed with respective genes, each single colony of E. coli transformant as provided above was cultured in 3 ml of LB broth containing chloramphenicol overnight (220 rpm, 37° C.), and 50 to 100 μl were subcultured in a new 3 ml of LB broth, and they were cultured until absorbance (OD600) became 0.5 to 1, and they were diluted with LB broth to absorbance (OD600) of 0.5. The diluted solution was serially diluted again 5 times by a factor of one tenth with LB broth. […] The LB Agar media were incubated at 37° C., under light condition, and level of inhibiting growth was observed after 16 to 20 hours of incubation.
(§7) Plant physiol. 2003 133:736-747).

[5] = test system: PPO-deficient BT3 E. coli (ΔPPO) with wild type A. thaliana PPO1 (AtPPO1 WT, SEQ ID NO: 5); assay: as above; format: cell-based; details: 100 μM tiafenacil
Experimental: as §5, §6, §7

[6] = test system: A. thaliana transformants with CyPPO10 or CyPPO13 or variants; assay: Herbicide tolerance of A. thaliana transformants (T1); format: in vivo, Arabidopsis thaliana; details: 1 μM spray
Text: A. thaliana was transformed with a binary vector having ORF of a selectable marker, bar gene (glufosinate-tolerant), and that of each encoding gene of CyPPO10 or CyPPO13 variants. The transgenic plant was examined for cross-tolerance towards glufosinate and PPO-inhibiting herbicides. The bar gene was also used to examine whether the transgene was stably inherited during generations. NOS promoter and E9 terminator were used for bar gene expression.

Compound: COC(=O)CCNC(=O)C(C)Sc1cc(-n2c(=O)cc(C(F)(F)F)n(C)c2=O)c(F)cc1Cl (centres unmarked) [Tiafenacil]
- IC50 [1]: 0.818 µM
- IC50 [2]: 0.04 µM
- seed germination ([3]; 25 μM glufosinate+30 nM tiafenacil+40 nM saflufenacil): germinated
- seed germination ([3]; 25 μM glufosinate+70 nM tiafenacil): germinated
- growth ([4]; 400 μM tiafenacil): hardly grew
- growth ([4]; from 100 μM tiafenacil): gradually started to exhibit growth inhibition
- growth [5]: did not grow
- plant damage [6]: no damage

— patent publication US11466286B2, “Methods and compositions for conferring and/or enhancing herbicide tolerance using protoporphyrinogen oxidase or variant thereof” (FarmHannong Co., Ltd., priority 2016, dated 2022)
